Reference: US6699863B1, “Kinase inhibitors for the treatment of disease” (Allergan, Inc., priority 2002, dated 2004)

Columns and labels:
[1] = system: VEGF induced increases in intracellular calcium levels in HUVEC (human umbilical vein endothelial cells); assay: VEGF Stimulated Ca++ Signal In vitro (FLIPR); format: cell-based; conditions: VEGF stimulation 5 ng/mL, 30 min pre-incubation
Method: Automated FLIPR (Fluorometric Imaging Plate Reader) technology was used to screen for inhibitors of VEGF induced increases in intracellular calcium levels in fluorescent dye loaded endothelial cells. HUVEC (human umbilical vein endothelial cells) (Clonetics) were seeded in 96-well fibronectin coated black-walled plates overnight at 37° C./5%CO2. Cells were loaded with calcium indicator Fluo-4 for 45 minutes at 37° C. Cells were washed 4 times (Original Cell Wash, Labsystems) to remove extracellular dye. Test compounds were reconstituted in 100% DMSO and added to the cells to give a final DMSO concentration of 0.1%. For screening, cells were pre-incubated with test agents for 30 minutes, at a single concentration (10 μM) or at concentrations ranging from 0.01 to 10.0 μM followed by VEGF stimulation (5 ng/mL). Changes in fluorescence at 516 nm were measured simultaneously in all 96 wells using a cooled CCD camera. Data were generated by determining max-min fluorescence levels for unstimulated, stimulated, and drug treated samples. IC50 values for test compounds were calculated from % inhibition of VEGF stimulated responses in the absence of inhibitor.

[2] = target: T1, human VEGF receptor (VEGFR-2) (Homo sapiens, UniProt P35968); assay: VEGFR2 Kinase Assay; format: biochemical; conditions: 3.6 μM ATP, poly-Glu-Tyr (4:1)
T1 construct: The cytoplasmic domain of the human VEGF receptor (VEGFR-2) was expressed; His (histidine tag); made in house; host or cells: insect cells (engineered baculovirus)
Method: The cytoplasmic domain of the human VEGF receptor (VEGFR-2) was expressed as a Hisfidine-tagged fusion protein following infection of insect cells using an engineered baculovirus. His-VEGFR-2 was purified to homogeneity, as determined by SDS-PAGE, using nickel resin chromatography. Kinase assays were performed in 96 well microtiter plates that were coated overnight with 30 μg of poly-Glu-Tyr (4:1) in 10 mM Phosphate Buffered Saline (PBS), pH 7.2-7.4. The plates were incubated with 1% BSA and then washed four times with PBS prior to starting the reaction. Reactions were carried out in 120 μL reaction volumes containing 3.6 μM ATP in kinase buffer (50 mM Hepes buffer pH 7.4, 20 mM MgCl2, 0.1 mM MnCl2 and 0.2 mM Na3VO4). Test compounds were reconstituted in 100% DMSO and added to the reaction to give a final DMSO concentration of 5%. Reactions were initiated by the addition 0.5 ng of purified protein. Following a ten minute incubation at 25° C., the reactions were washed four times with PBS containing 0.05% Tween-20. 100 μl of a monoclonal anti-phosphotyrosine antibody-peroxidase conjugate was diluted 1:10000 in PBS-Tween-20 and added to the wells for 30 minutes. Following four washes with PBS-Tween-20, 100 μl of O-phenylenediamine Dihydrochloride in Phosphate-citrate buffer, containing urea hydrogen peroxide, was added to the wells for 7 minutes as a colorimetric substrate for the peroxidase. The reaction was terminated by the addition of 100 μl of 2.5N H2SO4 to each well and read using a microplate ELISA reader set at 492 nm. IC50 values for compound inhibition were calculated directly from graphs of optical density (arbitrary units) versus compound concentration following subtraction of blank values.

[3] = system: VEGF-induced EBD extravasation; assay: VEGF-induced Dermal Extravasation in Guinea Pig (Miles Assay); format: in vivo; conditions: vehicle corn oil; for % Inhibition @ Dose (mg/Kg): 75 mg/Kg single oral dose
Method: Male Hartley guinea pigs (300-600 g) were anesthetized with isofluorane, sheared, and given a single dose of drug or the respective vehicle. The guinea pigs were dosed orally unless indicated otherwise in Table 3. Ten minutes prior to the end of drug treatment, guinea pigs were anesthetized with isofluorane, and 0.5% Evans blue dye (EBD) in PBS (13-15 mg/kg dose of EBD) was injected intravenously. After 5 minutes, triplicate intradermal injections of 100 ng rhVEGF165 in 100 μl PBS and of 100 μl PBS alone were administered on the flank. After 20 minutes, each animal was euthanized with Pentosol, and the skin containing the intradermal injection sites was removed for image analysis.
Using an analog video camera coupled to a PC, an image of each trans-illuminated skin sample was captured, and the integrated optical density of each injection site was measured using ImagePro 4. For each skin sample, the difference between the mean optical density of the VEGF sites and mean optical density of the PBS sites is the measure of VEGF-induced EBD extravasation in that animal. These measured values were averaged per study group to determine the mean VEGF-induced EBD extravasation for each experimental condition, and the group means were then compared to assess inhibition of VEGF-induced EBD extravasation in the drug-treated groups relative to the vehicle-treated controls.
(§1) To determine the dose required for 50% inhibition (ID50), the percent inhibition data was plotted as a function of oral dose, using the ‘best-fit’ analysis within MicroSoft Excel software. The ID50 value was verified visually by using the plotted data (horizontal line from 50% y value, at intersection with best-fit line drop vertical line to x axis (dose).

physchem = format: physicochemical; conditions: buffer
Method: The chemical stability of Example 12 of the invention has been studied using buffers at pH 1, pH 3 and pH 7. Example 12 prepared in acetonitrile at 200 μg/mL and diluted to 20 μg/mL in buffers at pH 1, pH 3 and pH 7.

[4] = system: laser-induced choroidal neovascularization; assay: Laser-induced Choroidal Neovascularization (CNV) in Rat (CNV Assay); format: in vivo; conditions: vehicle corn oil
Method: CNV was induced and quantified in this model as previously described (Edelman and Castro. Exp. Eye Res. 2000; 71:523-533). On day 0, male Brown Norway rats (200-300 g) were anesthetized with 100 mg/kg Ketamine and 10 mg/kg Xylazine, and pupils were dilated with 1% Tropicamide. Using the blue-green setting of a Coherent Novus Argon Laser, 3 laser bums (90 mW for 0.1 s; 100 μm diameter) were given to each eye between the retinal vessels around the optic nerve head. Rats were dosed with test compounds in their indicated vehicles orally once daily.
On day 10, rats were sacrificed with 100% CO2, and blood vessels were labeled by vascular perfusion with 10 mg/ml FITC-dextran (MW 2×10^6). Using an epifluorescence microscope (20×) coupled to a spot digital camera and a PC, images were obtained from the flat mounts of the RPE-choroid-sclera from each eye, and the area occupied by hyperfluorescent neovessels within each laser lesion was measured using ImagePro 4 software.
as §1

T1 sequence (P35968 786-1356 limits assumed): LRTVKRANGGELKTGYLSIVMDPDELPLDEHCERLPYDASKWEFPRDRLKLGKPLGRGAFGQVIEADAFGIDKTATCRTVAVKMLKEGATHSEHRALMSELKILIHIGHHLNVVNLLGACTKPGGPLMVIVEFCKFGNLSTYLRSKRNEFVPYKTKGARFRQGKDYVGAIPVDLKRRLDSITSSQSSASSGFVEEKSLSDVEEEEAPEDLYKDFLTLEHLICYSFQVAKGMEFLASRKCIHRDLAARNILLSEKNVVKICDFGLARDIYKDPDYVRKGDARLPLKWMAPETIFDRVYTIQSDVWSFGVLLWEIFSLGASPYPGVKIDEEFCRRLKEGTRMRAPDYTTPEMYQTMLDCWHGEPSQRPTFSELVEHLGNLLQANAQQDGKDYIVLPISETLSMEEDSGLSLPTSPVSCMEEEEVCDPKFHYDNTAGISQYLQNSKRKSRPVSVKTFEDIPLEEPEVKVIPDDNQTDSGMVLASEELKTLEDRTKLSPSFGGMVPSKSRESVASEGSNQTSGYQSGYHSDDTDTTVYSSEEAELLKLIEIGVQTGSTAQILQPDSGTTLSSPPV

| SMILES | IC50 [1] | IC50 [2] | % Inhibition @ Dose (mg/Kg) [3] | further results |
| --- | --- | --- | --- | --- |
| O=C1Nc2ccccc2C1=CNc1ccc(N2CCOCC2)cc1 [Example 11, 3-[(4-morpholinophenylamino)-methylene]-1,3-dihydro-indol-2-one] | 294 nM | 260 nM | 40% @ 75 mg/Kg |  |
| O=C1C(=CNc2ccc(N3CCOCC3)cc2)c2ccccc2N1CN1CCCCC1 [Example 12, 3-[(4-Morpholin-4-yl-phenylamino)-methylene]-1-piperidin-1-ylmethyl-1,3-dihydro-indol-2-one] | 432 nM | 478 nM | 88% @ 75 mg/Kg | half-life at 20 μg/mL (physchem; pH 1): ~38 h; half-life at 20 μg/mL (physchem; pH 3): ~20 h; half-life at 20 μg/mL (physchem; pH 7.4): < 0.5 h; % Inhibition @ Dose (mg/Kg) ([4]; 80 mg/Kg (sid) oral once daily, day 10): 94% @ 80 mg/Kg (sid); ID50 ([4]; oral once daily): 36 mg/kg; ID50 ([3]; oral): 36 mg/kg |
| O=C1C(=CNc2ccc(N3CCOCC3)cc2)c2ccccc2N1CN1CCOCC1 [Example 13, 1-Morpholin-4-ylmethyl-3-[(4-morpholin-4-yl-phenylamino)-methylene]-1,3-dihydro-indol-2-one] | 722 nM | 3860 nM | 35% @ 75 mg/Kg |  |
| O=C1Nc2ccccc2C1=C1OCc2ccccc21 [Example 14, 3-(3H-isobenzofuran-1-ylidene)-1,3-dihydro-indol-2-one] | 110 nM |  |  |  |
| CN(C)c1ccc2c(c1)COC2=C1C(=O)Nc2ccccc21 [Example 18, 3-(5-Dimethylamino-3H-isobenzofuran-1-ylidene)-1,3-dihydro-indol-2-one] | 22 nM | 31 nM |  |  |
| CN(C)c1ccc2c(c1)COC2=C1C(=O)N(CN2CCCCC2)c2ccccc21 [Example 19, 3-(5-Dimethylamino-3H-isobenzofuran-1-ylidene)-1-piperidin-1-ylmethyl-1,3-dihydro-indol-2-one] | 120 nM | 133 nM |  |  |
| CN(C)c1ccc2c(c1)COC2=C1C(=O)Nc2ccc(Cl)cc21 [Example 20, 5-Chloro-3-(5-dimethylamino-3H-isobenzofuran-1-ylidene)-1,3-dihydro-indol-2-one] | 33 nM | 22 nM |  |  |
